Literature values as cited in patent US20080044496A1, “ARTHRITIS PHYTO-NUTRACEUTICAL SYNERGISTIC COMPOSITION” (priority 2006, published 2008).

Tested on: human rheumatoid arthritis synoviocytes

C[C@@H]1CC[C@@]2(OC1)O[C@H]1C[C@H]3[C@@H]4CC=C5C[C@@H](O)CC[C@]5(C)[C@H]4CC[C@]3(C)[C@H]1[C@@H]2C [diosgenine]
apoptosis: induces apoptosis
